Entries after “also recorded” stand apart in the source; their conditions may differ.
Tests used:
[1] = system: LN229 MGMT+/−, MMR+/− cells; assay: Cell cycle analysis; type: cell-based, human; details: 20 μM, 24 to 48 h; cell status given in the value
Method: Cell Cycle Analysis. Cell cycle analysis was performed using integrated Hoechst nucleic acid dye fluorescence. Briefly, integrated Hoechst fluorescence intensity was log 2 transformed and histograms from DMSO-treated cells were used to identify the centers of the 2N and 4N DNA peaks. These values were used to normalize the 2N DNA peak to 1 and the 4N DNA peak to 2. Cells were then classified by normalized log 2 DNA content as GI (0.75-1.25), S (1.25-1.75), or G2 (1.75-2.5) phase cells. The percentage of cells within each phase of the cell cycle was determined for each treatment condition. The three sets of Hoechst-stained cells corresponding to the three separate DNA foci stains were treated as three independent analyses.

[2] = system: LN229 MGMT+/−, MMR+/− cells; assay: Micronuclei analysis; type: cell-based, human; details: 20 μM, 48 h
Description: Micronuclei Analysis. An automated image analysis pipeline was developed by YCMD using InCell Analyzer software to quantify micronuclei formation. Nuclei and micronuclei were segmented based on Hoechst nucleic acid dye staining channel. A perinuclear margin was applied around the nuclei to approximate the extent of the cytoplasm and identify micronuclei associated with the parent nucleus. Cells with nuclei associated with at least 1 micronucleus were considered positive.

[3] = system: FANCD2 ubiquitination in LN229 MGMT+/−, MMR+/− cells; assay: Western blot analysis of FANCD2 ubiquitination; type: cell-based, human
Method: FIGS. ZS9A-ZS9G. […] (FIG. ZS9A) Representative images of micronuclei identification. (FIG. ZS9B) Validation of micronuclei identification using olaparib as positive control. Change in percent cells with 1 micronuclei from baseline (DMSO control) after treatment with olaparib ([…]) for 48 h in LN229 MGMT+/−, MMR+/− cells. Columns, mean; error bars, SD; […] technical replicates; **** p<0.0001. […] (FIG. ZS9G) Western blot analysis of FANCD2 ubiquitination in LN229 MGMT+/−, MMR+/− cells and PD20 FANCD2-deficient cells, complemented with empty vector (FANCD2+EV), wildtype FANCD2 (PD20+FD2) or ubiquitination-mutant FANCD2 (PD20+KR). The % FANCD2 ubiquitination (% FANCD2 Ub.) is quantified as the background-corrected integrated band intensity of the upper band divided by the sum of the background-corrected integrated band intensities of the upper and lower bands. The fold change in % FANCD2 ubiquitination is presented for each cell line relative to DMSO-treated cells. Vinculin serves as loading control. For (FIG. ZS9D), (FIG. ZS9E), and (FIG. ZS9F), points, mean; error bars, SD; n=3 technical replicates.
Western Blotting. […] Where shown, bands were quantified using ImageJ software.

[4] = system: LN229 MGMT−/MMR− intracranial tumors; assay: Intracranial tumor study; type: in vivo, mouse; details: 25 mg/kg IP M-F×1 week as printed
[5] = system: LN229 WT and LN229-MSH2^− flank tumors; assay: Xenograft Experiments (FIG. 11); type: in vivo, mouse; details: 5 mg/kg gavage, Mondays, Wednesdays and Fridays for 3 weeks
Method: Xenograft Experiments (FIG. 11): All animal studies were approved by the Institutional Animal Use and Care Committee and performed in accordance with the Guide for the Care and Use of Laboratory Animals. LN229 WT and LN229-MSH2^− cell lines were maintained in DMEM media supplemented with 10% fetal bovine serum. Three-four-week-old female athymic nude Foxnnu mice were obtained from Envigo and each mouse was inoculated subcutaneously with tumor cells (4.5-5×10^6) in 0.1 ml of PBS with Matrigel (1:1). Wild type cells were injected on the right flank and mutant cells were injected on the left flank. The tumors were then grown to a mean size of approximately 50-100 mm3 and the mice were then split into groups and treated as detailed in FIG. 7. Gavage doses of 5 mg/kg of KL-50 or TMZ were prepared by diluting stocks in DMSO with 10% cyclodextrin. Compound was administered each day of dosing at a volume of 100 μL/mouse. Mice were treated for 3 weeks with dosing on Mondays, Wednesdays and Fridays. Tumors were measured 3 times a week during treatment and during the washout period of 2 weeks. Xenograft tumors were measured by calipers and volume was calculated using the equation for ellipsoid volume: Volume=0.523×(length)×(width)^2. Statistical Analysis: Analysis of variance (ANOVA) was used to test for significant differences between groups. Post-hoc Bonferroni multiple comparison test analysis was used to determine significant differences among means. All statistical analysis was accomplished using Graph Pad Prism 8.2.0 software.

NC(=O)c1ncn2c(=O)n(CCF)nnc12 [KL-50, 3-(2-fluoroethyl)-4-oxo-3H,4H-imidazo[4,3-d][1,2,3,5]tetrazine-8-carboxamide]
cell cycle arrest (in words) [1]: increasing G2 arrest on progression from 24 to 48 h in MGMT−/MMR+ cells; also recorded: attenuated G2 arrest in MGMT−/MMR− cells; also recorded: moderate G2 arrest in MGMT+/MMR+ cells | micronuclei formation (in words) [2]: significant increase in micronuclei was observed at 48 h | FANCD2 ubiquitination (in words) [3]: specifically in MGMT− cells | intracranial tumor growth by BLI (in words) [4]: effective | activity in MGMT−/MMR (MSH2)+ tumors (in words) [5]: comparable activity to TMZ | activity in MGMT−/MMR (MSH2)− tumors (in words) [5]: surprisingly effective

Cn1nnc2c(C(N)=O)ncn2c1=O [TMZ, temozolomide, reference compound]
cell cycle arrest (in words) [1]: This effect in MGMT−/MMR− cells was absent; also recorded: moderate G2 arrest in MGMT+/MMR+ cells | micronuclei formation (in words) [2]: smaller increases in G1-phase foci and micronuclei formation at 48 h in MGMT−/MMR+ cells; also recorded: did not observe foci induction or micronuclei formation in MGMT−/MMR− cells | FANCD2 ubiquitination (in words) [3]: induced FANCD2 ubiquitination but only in MGMT−/MMR+ cells | intracranial tumor growth by BLI (in words) [4]: only transiently suppressed tumor growth | activity in MGMT−/MMR (MSH2)− tumors (in words) [5]: ineffective

From patent US20240400572A1, “COMPOUNDS AND METHODS FOR TREATING CANCERS THAT ARE MGMT DEFICIENT REGARDLESS OF MMR STATUS” (Yale University, priority 2021, published 2024)
